Here are results for 87 molecules from a melting point compilation (Tetko et al.; mined from patent text by program, amines drawn as free bases though some values may be those of a salt).

SMILES strings stand for the structures. A value given as a limit tells only on which side of the number the result lay.

With `C=Cc1cc2cc(OC)ccc2n1C`, the melting point was in the range of 87 to 89 °C.
In the case of `CN(C)CCCOc1ccc(Nc2nccc(-c3cccnc3)n2)cc1` it was 85 to 87 °C; in that of `CC(=O)OCCCNc1cc(C)nc2cn[nH]c12`, 115 to 119 °C.
Molecule `CC(=O)Nc1cc([N+](=O)[O-])ccc1OCCCCl` showed a melting point of 130 °C.
In the case of `CCOC(=O)c1c(Cl)c(CC)c(C)[nH]c1=O` it was 167 °C; in that of `CN1C(=O)CCC1(O)c1ccc(Cl)c(S(=O)(=O)NCc2ccccc2Cl)c1` (configuration not stated), 144 to 145 °C; in that of `O=C(Oc1cc[nH]c(=O)c1)c1ccc([N+](=O)[O-])cc1`, 255 to 256 °C.
As to `CC1CSC2=C(O1)c1cc(-c3ccccc3)ccc1C(=O)C2=O` (configuration not stated), the melting point is 190 to 192 °C.
`O=c1[nH]c2ncc(-c3ccnc(O)c3)nc2n1CC1CCCCC1` registered a melting point of 311 to 313 °C.
In the case of `CCOC(=O)C1=CC(C(=O)c2cc(Cl)ccc2O)=CN2CCc3c([nH]c4ccc(OC)cc34)C12C(=O)OCC` (configuration not stated) it was 230 °C.
Consider `COc1ccccc1[N+]1([O-])CCNCC1`, for which the melting point lay within 157 to 160 °C.
The molecule `Cc1ccc(-c2cnn(-c3ccc(C)cc3)n2)cc1` registered a melting point of 98 to 99 °C.
As to `CCN1CCCC1CNC(=O)c1c(O)c(OC)c2occc2c1OC` (configuration not stated), the melting point is 86 °C.
Turning to `CSC(=NC#N)N1CCc2nc(N)sc2C1`, the melting point fell in the range of 152 to 155 °C.
In the case of `CCN(CC)c1ccc(N(c2ccc(N(CC)CC)cc2)C2(c3ccc(N(C)C)cc3C)OC(=O)c3ccccc32)cc1` (configuration not stated) it was 59 to 72 °C; in that of `O=C(Nc1cc2ncc(CN3CCCC3)cc2cc1F)c1ccc(-c2ccc(C(F)(F)F)cc2)cc1`, 209 to 212 °C; in that of `COc1ccc(C(=O)c2ccc(OCc3nc(-c4ccccc4)oc3C)nc2)c(O)c1`, 137 to 138 °C.
In the case of `CSc1nn(-c2c(Cl)cc(C(F)(F)F)cc2Cl)c(C)c1C(=O)c1cccc(C)c1` it was 103 to 104 °C; in that of `Cn1c(=O)cc(-c2nc(-c3ccccc3)cs2)c2cc(C(c3ccc(Cl)cc3)c3cnc(-c4ccccc4)[nH]3)ccc21` (configuration not stated), 190 °C.
In the case of `C=C(F)CCc1cccc(C2(c3ccc(OC(F)F)cc3)N=C(N)N(C)C2=O)c1` (configuration not stated) it was 58 to 60 °C; in that of `N#CC=C1CCN(c2ccc(N3C[C@H](CNC(=O)C(F)F)OC3=O)cc2F)CC1`, 162 to 164 °C.
Molecule `CC(=O)NC(=O)OCc1nc(C(C)C)c(Sc2cc(Cl)cc(Cl)c2)n1Cc1ccncc1` displayed a melting point of 135 to 137 °C.
In the case of `Cc1cccc2c(=O)nc(-c3ccccn3)sc12` it was 198 °C; in that of `O=C1NC(=O)C(S(=O)(=O)c2ccc(Br)cc2)S1` (configuration not stated), 156 to 158 °C.
In the case of `NS(=O)(=O)c1cc2c(s1)S(=O)(=O)CC(O)C2O` (configuration not stated) it was 182 to 185 °C; in that of `N#Cc1ccc(-c2cn(-c3ccc(C#N)cc3)c(SCc3ccccn3)n2)cc1`, 164 to 170 °C.
Turning to `COc1ccc(-c2cc3ncnc(Nc4ccc5[nH]ccc5c4)c3s2)cc1OC`, the melting point lay in the range of 171 to 178 °C.
In the case of `O=C(O)CCc1cc2cc(Cl)ccc2n1S(=O)(=O)c1ccc(-c2ccccc2)cc1` it was 160 to 162 °C.
In the case of `COc1ccc2c(c1)C1(CCNC1)CC2O` (configuration not stated) it was 135 to 138 °C; in that of `O=C1C(Cc2ccccc2)C(c2ccccc2)Nc2ccccc2N1Cc1ccccc1` (configuration not stated), 149 to 150 °C.
In the case of `N#Cc1ccsc1C1=CC(=O)Nc2cc(-c3ccc(F)cc3)ccc2N1` it was 239 to 240 °C; in that of `OC1Cn2ccnc2C(=C2CCN(CCc3ccc(OCc4ccc5ccccc5n4)cc3)CC2)c2ccsc21` (configuration not stated), 242 °C.
`CCc1nc(=O)c2ccccc2n1Cc1ccc(-c2ccccc2C#N)cc1` yielded a melting point of 207 to 208 °C.
In the case of `CCCn1nc2c(N)nc3ncccc3c2c1CC1CCOCC1` it was 252 to 255 °C; in that of `CNCC1COC2(CCN(c3nc4c(cc3F)C=C(C(=O)O)CN4c3ccc(F)cc3F)CC2)O1` (configuration not stated), 188 to 193 °C.
As for `O=C(NCCO)c1cccc(-c2cncc3cc(Cc4cccc(C(F)(F)F)c4)oc23)c1`, the melting point lay within 155 to 156 °C.
In turn, `COC(=O)c1sccc1S(=O)(=O)Nc1onc(C)c1C` had a melting point of 113 to 116 °C.
As to `CC(C)C(S)C(=O)NC1(C(=O)NC(Cc2ccc(-c3ccccc3)s2)C(=O)O)CCCC1` (configuration not stated), the melting point lay in the range of 154 to 155 °C.
In the case of `CC(C)c1ccc2c(c1)[C@@H](NC(=O)c1ccc(F)cc1)[C@H](O)C(C)(C)O2` (relative stereo) it was 235 to 236 °C; in that of `O=c1[nH]ncn1C(c1cccc(Cl)c1)c1ccnc2ccccc12` (configuration not stated), 244 °C; in that of `Clc1cccc(Nc2ncnc3[nH]nc(NCc4cccnc4)c23)c1`, 204 to 206 °C.
In the case of `C#CC1CCC(c2ccc(C3CCC(CCC)CC3)cc2)CC1` (configuration not stated) it was 143 °C.
`O=c1[nH]c2ccccc2c2c(C(O)CC3CCNCC3)n(-c3ccccc3)nc12` (configuration not stated) came in with a melting point of 258 to 261 °C.
In the case of `CCON=C(c1ccccc1SCc1ccc(Cl)cc1)n1ccnc1` it was 96.5 to 97.5 °C.
In the case of `CC(N)=CC(=O)NC1CCCC1` it was 138 to 139 °C; in that of `CNS(=O)(=O)c1ccc(F)cc1`, 67 to 70 °C.
The molecule `Cc1ccc(C)c(C(=O)c2ccccc2)c1O` showed a melting point of 111 to 114 °C.
In the case of `Cc1c(-c2ccc(OC(F)F)c(OC3CC3)c2)[nH]c2cn[nH]c(=O)c12` it was 245 to 246 °C.
In the case of `O=C1C=C(NC(=O)C(=O)c2cn(Cc3ccc(Cl)cc3)c3cc(Cl)ccc23)CO1` it was 255 to 257 °C; in that of `O=C(Cl)c1c(Cl)c(Cl)c(Cl)c2c(Cl)c(Cl)c(Cl)c(Cl)c12`, 163 to 165 °C.
In the case of `CCOC(=O)c1cn(-c2ccccn2)c2oc(CN3CCOCC3)cc2c1=O` it was 192 to 195 °C; in that of `CC(=O)SCC(Cc1ccc(F)cc1F)C(=O)Nc1cccc(C(=O)O)c1` (configuration not stated), 164 to 166 °C.
Molecule `CS(=O)(=O)N(Cc1cccnc1)c1ccc(Oc2ccccc2)cc1` had a melting point of 139 to 140 °C.
In the case of `CCn1c(Nc2ccc(C)cc2)nnc1[C@@H](C)NS(=O)(=O)c1ccc(Cl)c(Cl)c1` it was 93 to 99 °C; in that of `O=CCCOC(c1ccccc1)(c1ccccc1)c1ccccc1`, 97 to 98 °C; in that of `COC(=O)Cc1cc(Br)c(Sc2ccc(OC)c(C(C)C)c2)c(Br)c1`, 73 to 76 °C.
For the molecule `CCCCCN1C(=O)C(NC(=O)C2CCc3ccccc3C2)c2ccccc21` (configuration not stated), the melting point was in the range of 127 to 132 °C.
In turn, `CN1C(=O)CN=C(c2ccccc2F)c2cc(NC(=O)NCCOC(C)(C)C)ccc21` showed a melting point of 177 °C.
In the case of `O=C(OCc1ccccc1)N1CCN(c2ccc(-c3ccnc(Nc4ccc5[nH]nnc5c4)n3)cn2)CC1` it was 247 to 249 °C.
`CCOC(=O)c1c(Cl)c(Cl)c(Cl)c(Cl)c1C#N` gave a melting point of 74 to 75 °C.
Regarding `CCC(CC)Oc1nc(C)nc(Oc2c(C)cc(C)cc2C)c1C`, the melting point lay in the range of 93.5 to 95.5 °C.
In the case of `CC(=O)NCCn1cccc1C1=CC(=O)c2ncccc2C1=O` it was 164 to 165 °C; in that of `C#CC(C)Nc1c(C)cccc1C` (configuration not stated), 32 to 33 °C.
In the case of `COc1ccc2c(CC#N)c[nH]c2c1`, the melting point is 100 °C.
For the molecule `CCSc1nc2ccccc2c(=O)n1NC(=O)Nc1ccc(Cl)cc1`, the melting point was in the range of 234 to 235 °C.
`O=[N+]([O-])c1cc(C(F)(F)F)cc([N+](=O)[O-])c1P(=O)(c1ccccc1)c1ccccc1` gave a melting point of 214 to 215 °C.
`CCCn1c(=O)n(C)c(=O)c2nc(-c3ccc(/C=C/C(=O)O)cc3)[nH]c21` returned a melting point of more than 300 °C.
Regarding `CC(C)OCC(C)Oc1ccc(COc2cnn(C(C)(C)C)c(=O)c2Cl)cc1` (configuration not stated), the melting point is 60 to 62 °C.
In the case of `CCOP(=O)(COCCOn1cnc2c(N)nc(N)nc21)OCC` it was 139 to 141 °C.
In turn, `N#Cc1ccc(N2C[C@H](O)C[C@@H]2CO)c2ccccc12` yielded a melting point of 146 to 147 °C.
In the case of `CC(Cc1cc(NC(=O)NCc2ccccc2)cc2ccoc12)NC(=O)OC(C)(C)C` (configuration not stated) it was 167 to 168 °C.
`COC(=S)NCc1cn(-c2ccc(-n3cccc3)cc2)nn1`: the melting point came to 150 °C.
In turn, `CCN(CC)CCNC(=O)N(CCS(=O)(=O)c1ccc(OC)cc1)C(C)C` registered a melting point of 39.5 to 42 °C.
Regarding `COc1ccccc1NC(=O)Nc1nc(Oc2ccc3ccccc3c2)nc(N(CCC(=O)O)Cc2cccc(Cl)c2)n1`, the melting point fell in the range of 215 to 218 °C.
The molecule `Fc1ccc(-c2nc(SCSc3nc(-c4ccc(F)cc4)c(-c4ccc(F)cc4)[nH]3)[nH]c2-c2ccc(F)cc2)cc1` registered a melting point of 265 °C.
Regarding `CCN=C1SC2CCOc3ccc([N+](=O)[O-])cc3C2(O)N1CC` (configuration not stated), the melting point is 125 to 127 °C.
Molecule `CC(C)(C)OC(=O)[C@H](CCC(=O)N1CCC2(CCN(Cc3ccccc3)CC2)CC1)NS(=O)(=O)c1ccccc1` showed a melting point of 134 to 136 °C.
In the case of `CSc1ccc(C(=O)c2cc(-c3ccccc3)c(N3CCOCC3)s2)cc1` it was 165 °C; in that of `CCOC(=O)C(CC(=O)c1ccc(Oc2ccc(C)cc2)cc1)SC(C)=O` (configuration not stated), 85 to 86.5 °C.
In the case of `CCOC(=O)C=C(C)NC(=O)C(C)(C)CCl` it was 76 to 77.5 °C.
For `CCOC(=O)C(C(=O)OCC)c1csc(N)n1`, the melting point is 99.5 to 100 °C.
Regarding `Fc1cc(I)c2nc[nH]c2c1`, the melting point is 210 to 211 °C.
In the case of `Cc1cccc(-c2ccc(C(=O)O)cc2)c1` it was 198 to 200 °C; in that of `Cc1ncc(C(=O)N2CCC(=O)CC2)c(C)n1`, 116 °C.
In the case of `COCOc1cc(NC(=O)OC(C)(C)C)cc2ccccc12` it was 64 to 66 °C; in that of `CCc1ccc(OC(C)(C)C(=O)O)cc1OCCCc1cn(-c2ccc(C(F)(F)F)cn2)nc1C(C)C`, 115 to 116 °C.
On to `CCCCN(CCCc1coc2c(OC)cccc12)C1COc2c(F)ccc(C(N)=O)c2C1` (configuration not stated), for which the melting point lay within 110 to 117 °C.

By melting point is commonly meant the temperature, or range, at which the solid turns liquid.
